pIC50: −log10 of the molar value. Read-outs that look alike come from different tables or passages of the source.
Biological target: T1, MMP-9 (92 kDa, gelatinase B; type IV collagenase) (Homo sapiens, UniProt P14780)
T1 construct: endogenous in cells; enzyme purified from the conditioned medium
Assay: Assay of type IV collagenase inhibitors: activated MMP-9 with type IV collagenase activity kit substrate, fluorescent intensity
Format: biochemical
Procedure: (1) Isolation and Purification of MMP-9 (92 kDa, Gelatinase B)
Type IV collagenase (MMP-9) was purified according to the methods descrived in the following literature.
Subsequently, activated MMP-9 was obtained by treating the pro-MMP-9 with trypsin.
(2) Assay Methods of Type IV Collagenase Inhibitors
Collagenase assay was performed using the activated MMP-9 described above and the substrate supplied in the type IV collagenase activity kit (YAGAI, inc.), according to the manufacturer's protocol. The following 4 assays are performed per compound (inhibitor).
(A) substrate (type IV collagenase), enzyme (MMP-9), inhibitor
(B) substrate (type IV collagenase), inhibitor
(C) substrate (type IV collagenase), enzyme (MMP-9)
(D) substrate (type IV collagenase)
According to the manufacturer's protocol, fluorescent intensity was measured and percent inhibition was determined by the following equation.
Inhibition (%)={1−(A−B)/(C−D)}×100

[1] = inhibition of type IV collagenase (MMP-9), concentration at which percent inhibition reaches 50%
[2] = activated MMP-9, type IV collagenase activity kit substrate, fluorescent intensity, concentration at which percent inhibition reaches 50%

T1 sequence (P14780 107-707 limits assumed): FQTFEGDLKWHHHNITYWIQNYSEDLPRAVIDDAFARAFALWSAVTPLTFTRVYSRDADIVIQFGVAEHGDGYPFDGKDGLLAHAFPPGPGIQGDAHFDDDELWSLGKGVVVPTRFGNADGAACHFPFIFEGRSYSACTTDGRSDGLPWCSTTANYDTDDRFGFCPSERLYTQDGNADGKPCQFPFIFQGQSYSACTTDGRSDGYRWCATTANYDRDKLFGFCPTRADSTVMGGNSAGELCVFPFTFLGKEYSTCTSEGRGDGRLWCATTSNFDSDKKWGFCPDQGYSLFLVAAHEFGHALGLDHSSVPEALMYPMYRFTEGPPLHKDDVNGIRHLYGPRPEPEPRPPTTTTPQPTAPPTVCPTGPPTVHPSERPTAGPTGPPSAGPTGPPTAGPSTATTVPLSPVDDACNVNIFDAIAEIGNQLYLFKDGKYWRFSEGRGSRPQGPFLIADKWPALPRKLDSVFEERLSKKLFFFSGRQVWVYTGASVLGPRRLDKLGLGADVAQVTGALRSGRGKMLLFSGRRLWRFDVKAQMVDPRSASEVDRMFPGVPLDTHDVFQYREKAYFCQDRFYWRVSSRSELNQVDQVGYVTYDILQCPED

Row | Structure (SMILES) | pIC50 [1] | pIC50 | further results
1 | O=C(NO)[C@@H](Cc1ccccc1)NS(=O)(=O)c1ccc(O)cc1 [Example 1b-1-24] | – | – | pIC50 [2]: 6.70
2 | O=C(O)[C@@H](Cc1ccccc1)NS(=O)(=O)c1ccc(-c2nnn(-c3ccc([N+](=O)[O-])cc3)n2)cc1 [Example 230] | – | 6.55 | –
3 | Cc1ccc(-n2nnc(-c3ccc(S(=O)(=O)N[C@@H](C(=O)O)C(C)C)cc3)n2)cc1 [Example 242] | – | 7.62 | –
4 | O=C(O)[C@@H](Cc1c[nH]c2ccccc12)NS(=O)(=O)c1ccc(-c2ccc(F)cc2)cc1 [Example 1a-1-41] | – | – | pIC50 [2]: 6.51
5 | O=Cn1cc(C[C@@H](NS(=O)(=O)c2ccc(-c3nnn(-c4ccccc4)n3)cc2)C(=O)O)c2ccccc21 [Example 219] | – | 6.24 | –
6 | CC(C)[C@H](C(=O)O)N(C)S(=O)(=O)c1ccc(Oc2ccccc2)cc1 [Example 252] | – | 6.62 | –
7 | CSc1ccc(-c2ccc(S(=O)(=O)N[C@@H](C(=O)O)C(C)C)cc2)cc1 [Example 1a-1-55] | – | – | pIC50 [2]: 7.40
8 | CC(C)[C@@H](NS(=O)(=O)c1ccc(NC(=O)c2ccccc2)cc1)C(=O)O [Example 199] | – | 5.69 | –
9 | CC(C)[C@@H](NS(=O)(=O)c1ccc(-c2ccc(C(F)(F)F)cc2)cc1)C(=O)O [Example 1a-1-46] | – | – | pIC50 [2]: 5.95
10 | O=C(O)C(Cc1cccc2ccccc12)NS(=O)(=O)c1ccc(-c2nnn(-c3ccccc3)n2)cc1 (centres unmarked) [Example 218] | – | 6.13 | –
11 | CSc1ccc(-c2ccc(S(=O)(=O)N[C@H](Cc3ccccc3)C(=O)O)cc2)cc1 [Example 1a-1-54] | – | – | pIC50 [2]: 7.12
12 | O=C(NO)[C@@H](Cc1ccccc1)NS(=O)(=O)c1ccc(N=Nc2ccccc2)cc1 [Example 1b-1-85] | 7.89 | – | –
13 | CC(C)[C@@H](NS(=O)(=O)c1ccc(-c2ccc(C(C)(C)C)cc2)cc1)C(=O)O [Example 1a-1-44] | – | – | pIC50 [2]: 5.72
14 | Cc1ccc(-c2ccc(S(=O)(=O)N[C@@H](C(=O)O)C(C)C)s2)cc1 [Example 1a-3-7] | 6.64 | – | –
15 | O=C(O)C(Cc1c[nH]c2ccc(F)cc12)NS(=O)(=O)c1ccc(-c2ccccc2)cc1 (racemic) [Example 1a-1-18] | – | – | pIC50 [2]: 6.30
16 | CSc1ccc(-n2nnc(-c3ccc(S(=O)(=O)N[C@@H](C(=O)O)C(C)C)cc3)n2)cc1 [Example 245] | 8.23 | – | –
17 | O=C(O)[C@@H](Cc1ccccc1)NS(=O)(=O)c1ccc(C#Cc2ccc(F)cc2)s1 [Example 1a-2-38] | 6.65 | – | –
18 | O=C(NO)[C@@H](Cc1ccccc1)NS(=O)(=O)c1ccc(Oc2ccccc2)cc1 [Example 1b-1-60] | – | – | pIC50 [2]: 8.92
19 | CN(C)c1ccc(N=Nc2ccc(S(=O)(=O)N[C@H](Cc3ccccc3)C(=O)O)cc2)cc1 [Example 1a-1-86] | 6.46 | – | –

Continued, in another order:

Row | pIC50 [1] | pIC50 | Structure (SMILES) | further results
20 | 7.16 | – | O=C(O)[C@@H](Cc1c[nH]c2ccccc12)NS(=O)(=O)c1ccc(C#Cc2ccc([N+](=O)[O-])cc2)cc1 [Example 1a-2-7] | –
21 | – | 6.60 | CC(C)[C@@H](NS(=O)(=O)c1ccc(NC(=O)c2ccc([N+](=O)[O-])cc2)cc1)C(=O)O [Example 201] | –
22 | 8.57 | – | O=C(Nc1ccc(S(=O)(=O)N[C@H](Cc2c[nH]c3ccccc23)C(=O)O)cc1)c1ccc(Br)cc1 [Example 183] | –
23 | 7.32 | – | C#Cc1ccc(C#Cc2ccc(S(=O)(=O)N[C@H](Cc3c[nH]c4ccccc34)C(=O)O)cc2)cc1 [Example 1a-2-11] | –
24 | – | 7.35 | O=C(Nc1ccc(S(=O)(=O)N[C@H](Cc2c[nH]c3ccccc23)C(=O)O)cc1)c1ccc([N+](=O)[O-])cc1 [Example 180] | –
25 | 7.24 | – | Nc1ccc(C#Cc2ccc(S(=O)(=O)N[C@H](Cc3c[nH]c4ccccc34)C(=O)O)cc2)cc1 [Example 1a-2-9] | –
26 | – | 7.62 | O=C(O)[C@@H](Cc1c[nH]c2ccccc12)NS(=O)(=O)c1ccc(-c2nnn(-c3ccccc3)n2)cc1 [Example 210] | –
27 | 5.35 | – | O=C(Nc1ccc(S(=O)(=O)N[C@H](Cc2ccccc2)C(=O)O)cc1)c1ccncc1 [Example 205] | –
28 | 6.63 | – | O=C(O)[C@@H](Cc1c[nH]c2ccccc12)NS(=O)(=O)c1ccc(C#Cc2ccccc2)cc1 [Example 1a-2-2] | –
29 | – | 7.60 | COc1ccc(C(=O)Nc2ccc(S(=O)(=O)N[C@H](Cc3c[nH]c4ccccc34)C(=O)O)cc2)cc1 [Example 178] | –

Source: US6441021B1, “Sulfonated amino acid derivatives and metalloproteinase inhibitors containing the same” (Shionogi & Co., Ltd., priority 1996, dated 2002)
